US20140357487A1, “PLANTS HAVING INCREASED TOLERANCE TO HERBICIDES” (BASF SE, priority 2011, published 2014)

Legend:
Format in all cases: biochemical
Details in all cases: normalized on Arabidopsis wild-type HPPD
[1] = molecular target: T1, Arabidopsis HPPD variant M335H, P336A (Arabidopsis thaliana, UniProt P93836, M335H/P336A); test: HPPD activity assay, Arabidopsis HPPD mutant M335H, P336A
T1 construct: PCR-based site directed mutagenesis of pEXP5-NT/TOPO®-AtHPPD is done; His6 (N); made in house; host or cells: E. coli BL21 (DE3)
T1 sequence (P93836 whole entry M335H/P336A): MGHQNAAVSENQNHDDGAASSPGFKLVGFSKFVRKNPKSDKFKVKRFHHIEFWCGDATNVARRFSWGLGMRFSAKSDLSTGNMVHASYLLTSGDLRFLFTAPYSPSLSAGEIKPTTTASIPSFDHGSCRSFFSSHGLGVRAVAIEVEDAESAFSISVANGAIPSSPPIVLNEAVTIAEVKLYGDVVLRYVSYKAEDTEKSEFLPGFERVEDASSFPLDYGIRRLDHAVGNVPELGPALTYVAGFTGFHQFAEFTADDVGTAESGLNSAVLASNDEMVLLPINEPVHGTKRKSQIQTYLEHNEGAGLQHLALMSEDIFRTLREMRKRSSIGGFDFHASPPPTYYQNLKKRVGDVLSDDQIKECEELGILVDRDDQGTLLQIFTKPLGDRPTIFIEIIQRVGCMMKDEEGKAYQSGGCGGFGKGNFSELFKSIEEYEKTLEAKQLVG
Method: (§1) HPPD produces homogentisic acid and CO2 from 4-hydroxyphenylpyruvate (4-HPP) and O2. The activity assay for HPPD is based on the analysis of homogentisic acid by reversed phase HPLC.
(§2) The assay mixture can contain 150 mM potassium phosphate buffer pH 7.0, 50 mM L-ascorbic acid, 1 μM FeSO4 and 7 μg of purified enzyme in a total volume of 1 ml.
(§3) Inhibitors are dissolved in DMSO (dimethylsulfoxide) to a concentration of 20 mM or 0.5 mM, respectively. From this stock solution serial five-fold dilutions are prepared in DMSO, which are used in the assay. The respective inhibitor solution accounts for 1% of the assay volume. […] After a preincubation of 30 min the reaction is started by adding 4-HPP to a final concentration of 0.1 mM. The reaction is allowed to proceed for 120 min at room temperature. The reaction is stopped by addition of 100 μl of 4.5 M phosphoric acid.
(§4) Activities are normalized by setting the uninhibited enzyme activity to 100%. IC50 values are calculated using non-linear regression.
(§5) The assay mixture can contain 150 mM potassium phosphate buffer pH 7.0, 50 mM L-ascorbic acid, 100 μM Catalase (Sigma-Aldrich), 1 μM FeSO4 and 0.2 units of purified HPPD enzyme in a total volume of 505 μl. 1 unit is defined as the amount of enzyme that is required to produce 1 nmol of HGA per minute at 20° C.
(§6) Inhibitors are dissolved in DMSO (dimethylsulfoxide) to a concentration of 0.5 mM. […] IC50 values are calculated using non-linear regression. […]
(§7) Purified, mutant HPPD enzymes are obtained by the methods described above. […] Apparent michaelis constants (Km) and maximal reaction velocities (Vmax) are calculated by non-linear regression with the software GraphPad Prism 5 (GraphPad Software, La Jolla, USA) using a substrate inhibition model.
(§8) Field performance of the optimized HPPD enzyme, which is used as a herbicide tolerance trait may depend not only on its lack of sensitivity towards HPPD inhibiting herbicides but also on its activity. To assess the potential performance of a herbicide tolerance trait a tolerance index (TI) is calculated using the following formula: […]

[2] = molecular target: T2, Arabidopsis HPPD variant M335H, P336A, E363Q (Arabidopsis thaliana, UniProt P93836, E363Q/M335H/P336A); test: HPPD activity assay, Arabidopsis HPPD mutant M335H, P336A, E363Q
T2 construct: PCR-based site directed mutagenesis of pEXP5-NT/TOPO®-AtHPPD is done; His6 (N); made in house; host or cells: E. coli BL21 (DE3)
T2 sequence (P93836 whole entry M335H/P336A/E363Q): as the sequence (P93836 whole entry M335H/P336A) above, with E363Q counted along it
Method: as §1, §2, §3, §4, §5, §6, §7, §8

Poa HPPD = test: HPPD activity assay, Poa HPPD
Method: as §1, §2
Inhibitors are dissolved in DMSO (dimethylsulfoxide) to a concentration of 20 mM or 0.5 mM, respectively. From this stock solution serial five-fold dilutions are prepared in DMSO, which are used in the assay. The respective inhibitor solution accounts for 1% of the assay volume. Thus, final inhibitor concentrations range from 200 μM to 2.5 nM or from 5 μM to 63 pM, respectively. After a preincubation of 30 min the reaction is started by adding 4-HPP to a final concentration of 0.1 mM. The reaction is allowed to proceed for 120 min at room temperature. The reaction is stopped by addition of 100 μl of 4.5 M phosphoric acid.
as §4
The assay mixture can contain 150 mM potassium phosphate buffer pH 7.0, 50 mM L-ascorbic acid, 100 μM Catalase (Sigma-Aldrich), 1 μM FeSO4 and 0.2 units of purified HPPD enzyme in a total volume of 505 μl. […]
Inhibitors are dissolved in DMSO (dimethylsulfoxide) to a concentration of 0.5 mM. […] IC50 values are calculated using non-linear regression.
Using methods which are described in the above examples or well known in the art, purified, recombinant wildtype HPPD enzymes are characterized with respect to their kinetic properties and sensitivity towards HPPD inhibiting herbicides. Apparent michaelis constants (Km) and maximal reaction velocities (Vmax) are calculated by non-linear regression with the software GraphPad Prism 5 (GraphPad Software, La Jolla, USA) using a substrate inhibition model. […] Weighted means (by standard error) of Km and […] values are calculated from at least three independent experiments. […]

Compound	Normalized tolerance index TI [1]	Normalized tolerance index TI [2]	Normalized tolerance index TI (Poa HPPD)
CC1=NOC(c2c(Cl)ccc(C3=C(O)c4ncccc4C(C)(C)S3(=O)=O)c2Cl)C1 (stereo not drawn) [Inhibitor 1, 7-[2,4-dichloro-3-(3-methyl-4,5-dihydroisoxazol-5-yl)phenyl]-5,5-dimethyl-6,6-dioxo-thiopyrano[4,3-b]pyridin-8-ol]	1.9	5.5	2.1
COCCOCc1c(Cl)ccc(C2=C(O)c3ncccc3C(C)(C)S2(=O)=O)c1Cl [Inhibitor 3, 7-[2,4-dichloro-3-(2-methoxyethoxymethyl)phenyl]-5,5-dimethyl-6,6-dioxo-thiopyrano[4,3-b]pyridin-8-ol]		0.3	
CC1(C)c2cccnc2C(O)=C(c2ccc(Cl)nc2Cl)S1(=O)=O [Inhibitor 2, 7-(2,6-dichloro-3-pyridyl)-5,5-dimethyl-6,6-dioxo-thiopyrano[4,3-b]pyridin-8-ol]	2.8		1.1
